We go through four compounds from PubChem BioAssay (NCI).

Holding throughout (experiment): inhibition of tumour cell growth, NCI panel, 48 h
Experiment [1] relates to MDA-MB-435.
Experiment [2] relates to SF-539 CNS.
Experiment [3] deals with SR leukemia.
Experiment [4] concerns HS 578T breast.
The subject of experiment [5] is MDA-N.
Experiment [6] deals with T-47D breast.
The subject of experiment [7] is BT-549 breast.
For experiment [8], the system named is EKVX NSCLC.
The subject of experiment [9] is KM12 colon.
The test system of experiment [10] is RXF 393 renal.
Experiment [11] relates to SF-268 CNS.
Experiment [12] has as its system DLD-1 colon.
Experiment [13] concerns DMS 114 small cell lung.
For experiment [14], the system named is DMS 273 small cell lung.
Experiment [15] has as its system KM20L2 colon.
For experiment [16], the system named is LXFL 529 NSCLC.
The test system of experiment [17] is M19-MEL melanoma.

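In this assay, cells in 96-well plates receive the compound at five concentrations for 48 hours. Endpoints are linearly interpolated between the surrounding concentrations. The concentration for 50% growth inhibition is given as GI50. At the TGI there is no net growth.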

For the compound `NCCCn1c2c(c3ccc([N+](=O)[O-])cc3c1=O)C(=O)c1cc(F)ccc1-2`, the GI50 in experiment [1] was 0.0762 µM; in [2], 0.0288 µM; in experiment [3], less than 0.01 µM. For the same compound, the values for the TGI in experiment [1], in [2] and in experiment [3] were 0.923 µM, 0.101 µM and 0.0205 µM, respectively.

For `CCP(=O)(CC)C(Cl)(Cl)C(O)C(Cl)(Cl)Cl` (stereo not given), the TGI in experiment [4], in experiment [5], in [3] and in [6] was greater than 100 µM each time.

For the compound `O=C1/C(=C/c2ccc(Cl)cc2)N=C(c2ccccc2)N1/N=C/c1ccccc1O`, the TGI in experiment [7] is 39.6 µM; in experiment [8] it was 21.3 µM; in experiment [4], 92.8 µM; in experiment [9], 33.3 µM; in [1], greater than 100 µM; in experiment [5], greater than 100 µM. The TGI in [10] worked out at 29.5 µM; in [11] it was 47.1 µM; in experiment [2] it was 26.6 µM; in [6], 30.7 µM.

In the case of `CN1C(=O)CN2C(Cl)(Cl)C2(c2ccccc2)c2cc(Cl)ccc21` (stereo not given), the TGI in experiment [12], in experiment [13], in experiment [14], in experiment [8], in [9] and in [15] was greater than 100 µM each time. The TGI in [16], in experiment [17], in experiment [10] and in [11] was greater than 100 µM each time.
